In publication PMC6572064, “Discovery of 2-(1-(3-(4-Chloroxyphenyl)-3-oxo- propyl)pyrrolidine-3-yl)-1H-benzo[d]imidazole-4-carboxamide: A Potent Poly(ADP-ribose) Polymerase (PARP) Inhibitor for Treatment of Cancer” (Molecules, 2019):
Read-outs that look alike come from different tables or passages of the source.

How the values were obtained:
[1] = test system: MDA-MB-436 (a BRCA-1-mutated breast cancer cell line); experiment: Cell proliferation assay, three-day, CellTiter-Glo, MDA-MB-436; format: cell-based; conditions: for inhibition at 0.00508 µM / inhibition at 0.0152 µM / inhibition at 0.0457 µM / inhibition at 0.41 µM / inhibition at 1.23 µM / inhibition at 3.7 µM / inhibition at 11.11 µM / inhibition at 33.33 µM / inhibition at 100 µM / IC50: Homo sapiens; for inhibition at 0.00508 µM: MDA-MB-436, MDA-MB-436, Conc. 0.00508 uM; for inhibition at 0.0152 µM: MDA-MB-436, MDA-MB-436, Conc. 0.0152 uM; for inhibition at 0.0457 µM: MDA-MB-436, MDA-MB-436, Conc. 0.0457 uM; for inhibition at 0.41 µM: MDA-MB-436, MDA-MB-436, Conc. 0.41 uM; for inhibition at 1.23 µM: MDA-MB-436, MDA-MB-436, Conc. 1.23 uM; for inhibition at 3.7 µM: MDA-MB-436, MDA-MB-436, Conc. 3.70 uM; for inhibition at 11.11 µM: MDA-MB-436, MDA-MB-436, Conc. 11.11 uM; for inhibition at 33.33 µM: MDA-MB-436, MDA-MB-436, Conc. 33.33 uM; for inhibition at 100 µM: MDA-MB-436, MDA-MB-436, Conc. 100.00 uM
Outline: (§1)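 Cells seeded overnight in 384-well plates, then exposed to compounds (DMSO stock diluted in medium) for 72 h at 37 °C, 5% CO2. Viability read as CellTiter-Glo luminescence after 60 min at room temperature.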

[2] = test system: CAPAN-1 (a BRCA-2-mutated pancreatic cancer cell line); experiment: Cell proliferation assay, three-day, CellTiter-Glo, CAPAN-1; format: cell-based; conditions: for IC50 / inhibition at 0.00508 µM / inhibition at 0.0152 µM / inhibition at 0.0457 µM / inhibition at […] / inhibition at 0.41 µM / inhibition at 1.23 µM / inhibition at 3.7 µM / inhibition at 11.11 µM / inhibition at 33.33 µM / inhibition at 100 µM: Homo sapiens; for inhibition at 0.00508 µM: CAPAN-1, 0.00508 uM; for inhibition at 0.0152 µM: CAPAN-1, 0.0152 uM; for inhibition at 0.0457 µM: CAPAN-1, 0.0457 uM; for inhibition at […]: CAPAN-1, 0.14 uM; for inhibition at 0.41 µM: CAPAN-1, 0.41 uM; for inhibition at 1.23 µM: CAPAN-1, 1.23 uM; for inhibition at 3.7 µM: CAPAN-1, 3.70 uM; for inhibition at 11.11 µM: CAPAN-1, 11.11 uM; for inhibition at 33.33 µM: CAPAN-1, 33.33 uM; for inhibition at 100 µM: CAPAN-1, 100.00 uM
Outline: as §1

[3] = molecular target: T1, PARP-1 (Homo sapiens, UniProt P09874); experiment: PARP-1 inhibition assay (PARP-1 Chemiluminescent Assay Kit, BPS Bioscience); format: biochemical; conditions: for inhibition at 0.01 µM: 10 nM compound
T1 construct: purchased BPS Bioscience 80569
Protocol: (§2) The PARP-1 and PARP-2 inhibition assays were performed in outsourcing, by a CRO company, Shanghai Medicilon Inc. (Shanghai, China). […] Briefly, PARP-1 or PARP-2 biotinylated substrate was incubated with compounds or solvent control at varying concentrations and an assay buffer containing the PARP-1 or PARP-2 enzyme.

[4] = molecular target: T2, PARP-2 (Homo sapiens, UniProt Q9UGN5); experiment: PARP-2 inhibition assay (PARP-2 Chemiluminescent Assay Kit, BPS Bioscience); format: biochemical; conditions: for inhibition at 0.01 µM: 10 nM compound
T2 construct: purchased BPS Bioscience 80552
Protocol: as §2

T2 sequence (Q9UGN5 whole entry): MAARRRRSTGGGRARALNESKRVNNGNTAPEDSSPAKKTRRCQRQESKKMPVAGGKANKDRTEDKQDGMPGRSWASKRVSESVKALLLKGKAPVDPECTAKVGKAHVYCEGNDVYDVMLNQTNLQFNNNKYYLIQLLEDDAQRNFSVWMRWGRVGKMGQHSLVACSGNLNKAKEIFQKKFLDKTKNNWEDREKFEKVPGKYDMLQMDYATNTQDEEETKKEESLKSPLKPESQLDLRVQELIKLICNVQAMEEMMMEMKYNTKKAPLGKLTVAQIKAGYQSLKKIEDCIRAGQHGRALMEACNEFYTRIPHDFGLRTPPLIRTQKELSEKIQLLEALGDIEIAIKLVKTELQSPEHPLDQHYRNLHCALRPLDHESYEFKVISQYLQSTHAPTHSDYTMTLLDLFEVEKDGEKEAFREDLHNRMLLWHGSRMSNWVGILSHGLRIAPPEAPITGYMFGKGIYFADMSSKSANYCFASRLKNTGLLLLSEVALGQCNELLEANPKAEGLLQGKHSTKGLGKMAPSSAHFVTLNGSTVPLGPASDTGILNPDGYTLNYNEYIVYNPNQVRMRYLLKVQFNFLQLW
T1 sequence (P09874 whole entry): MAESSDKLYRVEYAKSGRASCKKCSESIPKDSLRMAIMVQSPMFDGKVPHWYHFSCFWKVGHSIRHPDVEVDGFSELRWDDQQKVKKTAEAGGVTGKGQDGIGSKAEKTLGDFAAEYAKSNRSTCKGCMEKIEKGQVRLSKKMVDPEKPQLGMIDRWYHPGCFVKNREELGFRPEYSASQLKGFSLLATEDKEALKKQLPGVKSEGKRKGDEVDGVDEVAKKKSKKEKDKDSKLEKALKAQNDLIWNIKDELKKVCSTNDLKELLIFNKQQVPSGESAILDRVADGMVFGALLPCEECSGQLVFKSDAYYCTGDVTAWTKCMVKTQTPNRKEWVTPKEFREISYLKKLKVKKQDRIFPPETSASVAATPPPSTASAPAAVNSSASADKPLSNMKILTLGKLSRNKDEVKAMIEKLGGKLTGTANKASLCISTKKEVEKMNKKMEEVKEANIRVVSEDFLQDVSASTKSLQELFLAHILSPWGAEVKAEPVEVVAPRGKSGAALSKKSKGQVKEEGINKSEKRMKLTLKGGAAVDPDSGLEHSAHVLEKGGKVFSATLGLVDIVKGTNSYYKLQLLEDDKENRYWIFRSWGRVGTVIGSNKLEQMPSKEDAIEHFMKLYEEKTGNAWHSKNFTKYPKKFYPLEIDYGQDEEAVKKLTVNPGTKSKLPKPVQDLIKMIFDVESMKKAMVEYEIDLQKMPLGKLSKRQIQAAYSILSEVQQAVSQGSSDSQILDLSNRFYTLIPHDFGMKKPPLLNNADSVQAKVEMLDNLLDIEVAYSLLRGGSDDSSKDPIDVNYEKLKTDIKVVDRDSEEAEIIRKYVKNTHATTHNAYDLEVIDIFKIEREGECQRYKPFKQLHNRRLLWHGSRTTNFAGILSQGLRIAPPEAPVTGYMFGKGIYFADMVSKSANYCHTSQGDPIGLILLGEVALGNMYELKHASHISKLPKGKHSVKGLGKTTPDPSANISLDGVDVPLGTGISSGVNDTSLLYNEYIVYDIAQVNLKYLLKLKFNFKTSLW

SMILES: COc1ccc(C(=O)CCN2CCC(c3nc4c(C(N)=O)cccc4[nH]3)C2)cc1 (centres unmarked) [Compound 5ci, 2-(1-(3-(4-Methoxyphenyl)-3-oxopropyl)pyrrolidin-3-yl)-1H-benzo[d]imidazole-4-carboxamide]
- inhibition at 0.00508 µM ([1]; replicate 1, read-out: Inh % 1): -3.7%
- inhibition at 0.00508 µM ([1]; replicate 2, read-out: Inh % 2): -7.9%
- inhibition at 0.0152 µM ([1]; replicate 1, read-out: Inh % 1): -0.252%
- inhibition at 0.0152 µM ([1]; replicate 2, read-out: Inh % 2): -7.1%
- inhibition at 0.0457 µM ([1]; replicate 1, read-out: Inh % 1): -8.5%
- inhibition at 0.0457 µM ([1]; replicate 2, read-out: Inh % 2): -13.5%
- inhibition at 0.41 µM ([1]; replicate 1, read-out: Inh % 1): -19.2%
- inhibition at 0.41 µM ([1]; replicate 2, read-out: Inh % 2): -15.9%
- inhibition at 1.23 µM ([1]; replicate 1, read-out: Inh % 1): -9.5%
- inhibition at 1.23 µM ([1]; replicate 2, read-out: Inh % 2): -17.4%
- inhibition at 3.7 µM ([1]; replicate 1, read-out: Inh % 1): -10.7%
- inhibition at 3.7 µM ([1]; replicate 2, read-out: Inh % 2): -17.4%
- inhibition at 11.11 µM ([1]; replicate 1, read-out: Inh % 1): -13.6%
- inhibition at 11.11 µM ([1]; replicate 2, read-out: Inh % 2): -15.6%
- inhibition at 33.33 µM ([1]; replicate 1, read-out: Inh % 1): 7.8%
- inhibition at 33.33 µM ([1]; replicate 2, read-out: Inh % 2): 1.7%
- inhibition at 100 µM ([1]; replicate 1, read-out: Inh % 1): 89.3%
- inhibition at 100 µM ([1]; replicate 2, read-out: Inh % 2): 86.7%
- IC50 ([1]; MDA-MB-436, 72 h, CellTiter-Glo, read-out: MDA-MB-436 IC50): 38.6 µM
- IC50 ([1]; MDA-MB-436, 72 h, supplement Summary sheet, read-out: IC50): 38.6 µM
- IC50 ([1]; MDA-MB-436, curve fit list, no unit in the cell, concentration in uM, read-out: IC50): 38.6 µM
- LogIC50 ([1]; MDA-MB-436, curve fit on Log (uM) concentrations): ~ 1.587
- Bottom ([1]; MDA-MB-436, curve fit parameter (Inh %)): -11.35
- Top ([1]; MDA-MB-436, curve fit parameter (Inh %), '= 100.0' is a constrained value): 88
- LogIC50 ([2]; CAPAN-1, curve-fit output, Log (uM)): 1.682
- IC50 ([2]; CAPAN-1, 72 h, CellTiter-Glo, read-out: CAPAN-1 IC50): 48.1 µM
- inhibition at 0.00508 µM ([2]; replicate 1, read-out: Inh % 1): 3.5%
- inhibition at 0.00508 µM ([2]; replicate 2, read-out: Inh % 2): -8.1%
- inhibition at 0.0152 µM ([2]; replicate 1, read-out: Inh % 1): 3.7%
- inhibition at 0.0152 µM ([2]; replicate 2, read-out: Inh % 2): 5.2%
- inhibition at 0.0457 µM ([2]; replicate 1, read-out: Inh % 1): 2.3%
- inhibition at 0.0457 µM ([2]; replicate 2, read-out: Inh % 2): -3.2%
- inhibition at […] ([2]; replicate 1, read-out: Inh % 1): 7.9%
- inhibition at […] ([2]; replicate 2, read-out: Inh % 2): 5.4%
- inhibition at 0.41 µM ([2]; replicate 1, read-out: Inh % 1): 9.3%
- inhibition at 0.41 µM ([2]; replicate 2, read-out: Inh % 2): -5.7%
- inhibition at 1.23 µM ([2]; replicate 1, read-out: Inh % 1): -11.8%
- inhibition at 1.23 µM ([2]; replicate 2, read-out: Inh % 2): -10.7%
- inhibition at 3.7 µM ([2]; replicate 1, read-out: Inh % 1): 0.241%
- inhibition at 3.7 µM ([2]; replicate 2, read-out: Inh % 2): -0.2%
- inhibition at 11.11 µM ([2]; replicate 1, read-out: Inh % 1): 6%
- inhibition at 11.11 µM ([2]; replicate 2, read-out: Inh % 2): -3.5%
- inhibition at 33.33 µM ([2]; replicate 1, read-out: Inh % 1): 27.1%
- inhibition at 33.33 µM ([2]; replicate 2, read-out: Inh % 2): 18.7%
- inhibition at 100 µM ([2]; replicate 1, read-out: Inh % 1): 85.7%
- inhibition at 100 µM ([2]; replicate 2, read-out: Inh % 2): 75.3%
- IC50 ([2]; CAPAN-1, 72 h, supplement Summary sheet, read-out: IC50): 48.1 µM
- IC50 ([2]; CAPAN-1, curve-fit output, concentrations in uM, read-out: IC50): 48.1 µM
- inhibition at 0.01 µM ([3]; supplement sheet, read-out: 10 nM inhibition% PAPR-1): 59.2%
- inhibition at 0.01 µM ([3]; read-out: PARP-1 Inhibition % (10 nM)): 59.2%
- IC50 ([3]; read-out: PARP-1 IC50): 0.0059 µM
- IC50 ([3]; supplement sheet, read-out: IC50 PAPR-1): 0.00586 µM
- inhibition at 0.01 µM ([4]; supplement sheet, read-out: 10 nM inhibition% PAPR-2): 62.5%
- inhibition at 0.01 µM ([4]; read-out: PARP-2 Inhibition % (10 nM)): 62.5%
- IC50 ([4]; read-out: PARP-2 IC50): 0.0045 µM
- IC50 ([4]; supplement sheet, read-out: IC50 PAPR-2): 0.00452 µM
